The values below come from US7109243B2 (IRM LLC, priority 2003, dated 2006).

One experiment deals with Cathepsin S (Homo sapiens, UniProt P25774). The experiment in a line: Cathepsin S inhibition assay (fluorogenic peptide substrate). Conditions: Table II, compounds of Formula I; read-out: Ki Cat. S. It is filed as biochemical. In short, it runs like this:
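Ki values come from nonlinear fitting of inhibited hydrolysis rates, taking free and total inhibitor concentrations as equal. Rates measured as rising fluorescence at 380/450 nm after reaction start with 50 μM final acetyl-HPVK-aminocarbamoylcoumarin.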

For a further experiment, the target named is T1, Cathepsin K (Homo sapiens, UniProt P43235).
T1 sequence (P43235 115-329): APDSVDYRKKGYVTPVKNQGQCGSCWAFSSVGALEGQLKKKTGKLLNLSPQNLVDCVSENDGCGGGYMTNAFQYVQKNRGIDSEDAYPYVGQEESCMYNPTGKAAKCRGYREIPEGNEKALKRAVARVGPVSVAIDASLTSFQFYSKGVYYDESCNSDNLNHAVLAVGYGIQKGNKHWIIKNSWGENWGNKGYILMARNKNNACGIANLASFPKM
The experiment in a line: Cathepsin K inhibition assay (fluorogenic peptide substrate); selectivity ratio vs cathepsin S. To be noted: ratio of cathepsin K inhibition constant to cathepsin S inhibition constant; Table II. It is filed as biochemical. The essentials:
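Fluorogenic kinetic assay, started with acetyl-Lys-His-Pro-Lys-aminocarbamoylcoumarin at 40 μM final, hydrolysis followed at ex 380/em 450 nm. Apparent inhibition constants from progress curves, converted to competitive inhibition constants. Selectivity expressed as isozyme inhibition constant divided by cathepsin S inhibition constant.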

Sequence of Cathepsin S (P25774 115-331, species assumed): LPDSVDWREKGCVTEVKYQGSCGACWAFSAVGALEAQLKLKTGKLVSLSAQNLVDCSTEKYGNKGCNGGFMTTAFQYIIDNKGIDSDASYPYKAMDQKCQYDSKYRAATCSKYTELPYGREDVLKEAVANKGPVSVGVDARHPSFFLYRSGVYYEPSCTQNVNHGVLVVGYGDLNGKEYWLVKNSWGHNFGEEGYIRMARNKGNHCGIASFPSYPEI

Broadly, the Ki is the dissociation constant of the complex between target and ligand, obtained from inhibition or displacement. For the molecule `Cc1nc(N)sc1C(=O)N[C@@H](CC1CCCCC1)C(=O)NCCNc1ccc(OC(F)(F)F)cc1` [Compound 250, 2-Amino-4-methyl-thiazole-5-carboxylic acid (S)-{2-cyclohexyl-1-[2-(4-trifluoromethoxy-phenylamino)-ethylcarbamoyl]-ethyl}-amide], at Cathepsin S, the Ki is less than 100 nM. The “Selectivity for Cat. S over Cat. K” value on Cathepsin K is given as “++ (++, >100)”.

For `O=C(Cc1ccc(F)cc1F)N[C@@H](CC1CCCCC1)C(=O)NCCNc1ccc(F)cc1` [Compound 100, 3-Cyclohexyl-2-(S)-[2-(2,4-difluoro-phenyl)-acetylamino]-N-[2-(4-fluoro-phenylamino)-ethyl]-propionamide], the Ki at Cathepsin S is less than 100 nM. In addition, the “Selectivity for Cat. S over Cat. K” value at Cathepsin K was “+++ (+++, >1000)”.

In the case of `COc1ccc(NCCNC(=O)[C@H](CC2CCCCC2)NC(=O)c2ccc3nc(N)sc3c2)cc1` [Compound 187, (S)-2-Amino-benzothiazole-6-carboxylic acid {2-cyclohexyl-1-[2-(4-methoxy-phenylamino)-ethylcarbamoyl]-ethyl}-amide], on Cathepsin S, the Ki was less than 100 nM. On Cathepsin K, the “Selectivity for Cat. S over Cat. K” value is reported as “+ (+, >10)”.

For `CC[C@@H](C(=O)N[C@@H](CCC1CCCCC1)C(=O)NCCNc1ccc(OC)cc1)c1ccccc1` [Compound 75, N-{3-Cyclohexyl-1-(S)-[2-(4-methoxy-phenylamino)-ethylcarbamoyl]-propyl}-2-(R)-phenyl-butyramide], on Cathepsin S, the Ki is less than 100 nM. In addition, the “Selectivity for Cat. S over Cat. K” value on Cathepsin K is reported as “+++ (+++, >1000)”.

Consider `COc1ccc(NCCNC(=O)[C@H](CC2CCCCC2)NC(=O)c2ccc(C(F)(F)F)cc2F)cc1` [Compound 169, (S)-N-{2-Cyclohexyl-1-[2-(4-methoxy-phenylamino)-ethylcarbamoyl]-ethyl}-2-fluoro-4-trifluoromethyl-benzamide], for which the Ki at Cathepsin S is less than 1000 nM. The “Selectivity for Cat. S over Cat. K” value on Cathepsin K is “++ (++, >100)”.

`COc1ccc(NCCNC(=O)[C@H](CC2CCCCC2)NC(=O)c2sc(N)nc2C)cc1` [Compound 114, (S)-2-Amino-4-methyl-thiazole-5-carboxylic acid {2-cyclohexyl-1-[2-(4-methoxy-phenylamino)-ethylcarbamoyl]-ethyl}-amide]: the Ki on Cathepsin S was less than 100 nM. In addition, the “Selectivity for Cat. S over Cat. K” value at Cathepsin K was “++ (++, >100)”.

On to `COc1ccc(NCCNC(=O)[C@H](Cc2ccc(OCc3c(Cl)cccc3Cl)cc2)NC(=O)c2cccc(C)c2)cc1` [Compound 248, (S)-N-{2-[4-(2,6-Dichloro-benzyloxy)-phenyl]-1-[2-(4-methoxy-phenylamino)-ethylcarbamoyl]-ethyl}-3-methyl-benzamide], for which the Ki at Cathepsin S was less than 100 nM. The “Selectivity for Cat. S over Cat. K” value at Cathepsin K is “+++ (+++, >1000)”.

Regarding `COc1ccc(NCCNC(=O)[C@H](Cc2ccccc2)NC(=O)c2cccc(C#N)c2)cc1` [Compound 55, (S)-3-Cyano-N-{1-[2-(4-methoxy-phenylamino)-ethylcarbamoyl]-2-phenyl-ethyl}-benzamide], the Ki at Cathepsin S was less than 1000 nM. Further, on Cathepsin K, the “Selectivity for Cat. S over Cat. K” value is given as “++ (++, >100)”.

As to `O=C(Cc1ccc(F)cc1)N[C@@H](CC1CCCCC1)C(=O)NCCNc1ccc(F)cc1` [Compound 152, 3-Cyclohexyl-2-(S)-[2-(4-fluoro-phenyl)-acetylamino]-N-[2-(4-fluoro-phenylamino)-ethyl]-propionamide], the inhibition constant Ki on Cathepsin S was less than 100 nM. Moreover, on Cathepsin K, the “Selectivity for Cat. S over Cat. K” value was “++ (++, >100)”.

`COc1ccc(NCCNC(=O)[C@H](Cc2ccc(Cl)cc2Cl)NC(=O)c2cccc(C)c2)cc1` [Compound 229, (S)-N-{2-(2,4-Dichloro-phenyl)-1-[2-(4-methoxy-phenylamino)-ethylcarbamoyl]-ethyl}-3-methyl-benzamide]: the Ki at Cathepsin S was less than 100 nM. Besides, on Cathepsin K, the “Selectivity for Cat. S over Cat. K” value is recorded as “+++ (+++, >1000)”.

On to `COc1ccc(NCCNC(=O)[C@H](Cc2ccccc2)NC(=O)Nc2ccc(Oc3ccccc3)cc2)cc1` [Compound 89, (S)-N-[2-(4-Methoxy-phenylamino)-ethyl]-2-[3-(4-phenoxy-phenyl)-ureido]-3-phenyl-propionamide], for which the Ki on Cathepsin S is less than 1000 nM. In addition, the “Selectivity for Cat. S over Cat. K” value at Cathepsin K was “+ (+, >10)”.
